Key:
[1] = subject to certain variations of this value found in the literature; cited from earlier work
[2] = Steady-state exposure with 60 mg once-daily dose in adults; type: in vivo, human; details: 60 mg once-daily dose at steady state in adults; 95% confidence interval 11.2, 16.7
Procedure: The starting dose of study treatment for the sentinel cohort (dose level 1) will be based on body weight categories (based on subjects' body weight on Day 1), as detailed in the table below. This study intends to target exposures equivalent to those observed with a 60 mg once-daily dose at steady state in adults (area under the concentration versus time curve during 1 dosing interval [AUCT] of 13.7 μgxh/mL [95% confidence interval (CD: 11.2, 16.7 μgxh/m14. Based on the exposure data obtained from the sentinel cohort, the doses may be adjusted if required to achieve the targeted exposure in the main cohort.

Row | area under the concentration versus time curve during 1 dosing interval [AUCT] [2] [μgxh/mL] | Molecule | hydrophilic-lipophilic balance (HLB) value [1]
1 | – | CCCCCCCCCCCCOS(=O)(=O)[O-].[Na+] [SLS, Sodium lauryl sulfate] | about 40
2 | 13.7 | N#Cc1ccc(Cn2ccc(NC(=O)Cc3ccc(C4(C(F)(F)F)CC4)cc3)n2)nc1 [NBI-827104, N-[1-(5-cyano-pyridin-2-ylmethyl)-1H-pyrazol-3-yl]-2-[4-(1-trifluoromethyl-cyclopropyl)-phenyl]-acetamide] | –
3 | – | Poloxamer 188 | about 29

From US20230047102A1, “PHARMACEUTICAL COMPOSITIONS COMPRISING N-[1-(5-CYANO-PYRIDIN-2-YLMETHYL)-1H-PYRAZOL-3-YL]-2-[4-(1-TRIFLUOROMETHYL-CYCLOPROPYL)-PHENYL]-ACETAMIDE” (Idorsia Pharmaceuticals Ltd, priority 2019, published 2023)
